The test system of experiment [1] is mice with Behçet's disease. The experiment in a line: Skin symptom improvement in mice with Behçet's disease. The class given is in vivo. Conditions: external agent on skin, 1 μg/mouse once a day for 10 days; FIG. 6. Here is the method:
After applying the peptide-including external agent used in the Experimental Example 5 to the skin of mice with Behçet's disease, changes in the symptom improvement were checked. Administration was performed by 1 μg/mouse once a day for 10 days.

In experiment [2] the test system is arthritis model mice (collagen induced arthritis, CIA). The experiment can be described thus: Ankle thickness in collagen induced arthritis (CIA) mice. Format: in vivo, mouse. Conditions: at day 30, compared to arthritis mice (control) without receiving peptides; FIGS. 9A-9B. As to the method: (§1) Collagen was mixed with an adjuvant and injected subcutaneously into the tail twice (Day 1 and Day 11) to prepare arthritis model mice. The adjuvant is a mixture of 17 μL of high-concentration paraffin oil (Fisher, cat. no. 0122-1) and 68 μg (17 μL) of complete Freund adjuvant (CFA; Sigma-Aldrich, cat. no. F5881), which was used by mixing with 34 μg (17 μL) of bovine type II collagen (MD bioproducts cat. no. 804001-Sol). From the day after the second collagen injection (day 12), 1 μg (100 μL) of peptide was administered intramuscularly to the hind legs 10 times (once every 2 days), and mouse peripheral blood cells were isolated to analyze the frequency of Ly6G+ cells via flow cytometry. Peripheral blood cells were isolated from mouse hearts, red blood cells were lysed in ACK buffer (ammonium-chloride-potassium lysing buffer), and then centrifugation was performed to collect only blood cells to be used for antibody staining for the analysis with the flow cytometer. Using Ly6G+ as a neutrophil marker, whether the peptide inhibits a frequency of inflammation-induced neutrophil cells in an arthritis model was determined. Methotrexate (MTX) was used as a control drug.
Since the thickness of the ankle increases due to edema caused by arthritis, the ankle thickness was measured to determine whether peptide administration may relieve edema caused by inflammation. The ankle thickness was measured with a digital caliper at the thickest part of the ankle.

Another experiment deals with ROR-gammaT gene. The experiment in a line: Genetic analysis via real-time PCR in vitro, gene expression in cultured cells. Format: cell-based, mouse. Conditions: for expression of ROR-gammaT gene in the lymph node: FIG. 2F. Here is the method: (§2) While culturing spleen cells isolated from the spleen of 4-week-old male ICR mice weighing 25 g, various types of peptides having lipidized at terminus of the peptides were treated to cells, and changes in cytokine expression were observed via real-time PCR. Spleen cell isolation was performed by cutting out the spleen from mice, placing the spleen on a cell filter, crushing the spleen on a Petri dish through the cell filter using the plunger tip of a syringe, rinsing the cell filter with PBS, and transferring the suspended cells to 15 mL conical tube. Cells were centrifuged at 4° C. and 800×g for 5 minutes. Subsequently, the supernatant was discarded, and the pellets were resuspended in 1 mL of ACK buffer (ammonium-chloride-potassium lysing buffer). After leaving at room temperature for 5 to 10 minutes, […] of PBS at 4° C. was added, and the cells were centrifuged again at 4° C. and 800×g for 5 minutes. The supernatant was discarded again, the pellets were resuspended in 5 mL of culture, and 2×10^6 cells/mL were cultured in DMEM medium. Before culturing spleen cells in an incubator, 1 μg/mL anti-CD3 Ab was coated on the bottom of a culture container, after 24 hours, culture was performed for 3 days in DMEM medium including 1 μg of anti-CD28 Ab, 20 ng of IL-6, 5 ng of TGF beta, and 20 ng of IL-23 per 1 mL of culture medium, and then the peptides were treated, followed by culture for another 24 hours.

A further experiment relates to TNF-alpha. The experiment in a line: Genetic analysis via real-time PCR in vitro, cytokine expression in cultured cells. The class given is cell-based, mouse. Conditions: for cytokine TNF-alpha in the lymph node: FIG. 2G; for cytokine TNF-alpha in the spleen: peptide treatment 24 hours, FIG. 2C. As to the method: as §2
On the technique in general: Real-time PCR tracks product formation cycle by cycle.

The test system of a further experiment is IL-17. The description is as above. The class given is cell-based, mouse. Conditions: for cytokine IL-17 in the lymph node: FIG. 2E; for cytokine IL-17 in the spleen: peptide treatment 24 hours, FIG. 2A. Here is the method: as §2
The test system of another experiment is IL-1 beta. Described as above. Conditions: for cytokine IL-1 beta in the spleen: peptide treatment 24 hours, FIG. 2D; for cytokine IL-1 beta in the lymph node: FIG. 2H. The class given is cell-based, mouse.
A further experiment relates to Ly6G+ (neutrophil) cells. The experiment in a line: Frequency of Ly6G+ (neutrophil) cells in peripheral blood of collagen induced arthritis (CIA) mice. Format: in vivo, mouse. Conditions: 1 μg intramuscularly 10 times (once every 2 days), FIG. 8. As to the method:
as §1

Ends that are not written are not given here.

For “LTCLICPEKYCNKVHTCRNGENICF (SEQ ID NO: 5) (E2) [Peptide E2]”, the skin symptom improvement entry in experiment [1] was “improved the skin erythema”. Moreover, in experiment [2], the “thickness of the ankle” value is listed as “significantly reduced”. In the experiment with ROR-gammaT gene, the “expression of ROR-gammaT gene in the lymph node” value (from here on “expression … in the lymph node”) is “reduced”. In the experiment with TNF-alpha, the “cytokine TNF-alpha in the lymph node” value is recorded as “reduced” and the “cytokine TNF-alpha in the spleen” value is on record as “reduced”. Further, in the experiment with IL-17, the “cytokine IL-17 in the lymph node” value is recorded as “reduced” and the “cytokine IL-17 in the spleen” value was “reduced”. In addition, the “cytokine IL-1 beta in the spleen” value in the experiment on IL-1 beta is “reduced”.
Take “GCAATCPEAKPREIVECCSTDKCNH (SEQ ID NO: 7) (E4) [Peptide E4]”: in experiment [1], the skin symptom improvement result was “almost disappeared after 10 days, and the wound healed”.
In the case of “P2M: P2 peptide (SEQ ID NO: 2) with myristoylation, component of P124-M (YCNKVHTCRNG; cysteine pairing not given here; also: myristoylation) [Peptide P2M]”, the “cytokine TNF-alpha in the spleen” value in the experiment with TNF-alpha is reported as “reduced”. In addition, in the experiment on IL-17, the “cytokine IL-17 in the lymph node” value is on record as “reduced” and the “cytokine IL-17 in the spleen” value is given as “reduced”.
As for “LICPEKYCNKVHTCRNGENICF (SEQ ID NO: 4) (E1) [Peptide E1]”, the skin symptom improvement result in experiment [1] was “the symptom almost disappeared after 10 days”. Moreover, the “thickness of the ankle” value in experiment [2] is given as “significantly reduced”. Further, in the experiment on ROR-gammaT gene, the “expression … in the lymph node” value is given as “reduced”. Moreover, the “frequency of Ly6G+ cells” value in the experiment with Ly6G+ (neutrophil) cells was “decreased to a statistically significant level”. Also, the “cytokine TNF-alpha in the spleen” value with TNF-alpha is “reduced”. In the experiment on IL-17, the “cytokine IL-17 in the lymph node” value is given as “reduced” and the “cytokine IL-17 in the spleen” value was “reduced”. In the experiment with IL-1 beta, the “cytokine IL-1 beta in the lymph node” value was “reduced” and the “cytokine IL-1 beta in the spleen” value is reported as “reduced”.
Take “P1M: P1 peptide (SEQ ID NO: 1) with myristoylation, component of P124-M (LICPEKYCNKVHT; cysteine pairing not given here; also: myristoylation) [Peptide P1M]”: the “cytokine IL-1 beta in the spleen” value in the experiment on IL-1 beta is “reduced”.
Consider “TCPEAKPREIVECCSTDKCNH (SEQ ID NO: 6) (E3) [Peptide E3]”, for which the “thickness of the ankle” value in experiment [2] was “significantly reduced”. For the same substance, in the experiment on ROR-gammaT gene, the “expression … in the lymph node” value is listed as “reduced”. Besides, in the experiment with ROR-gammaT gene (spleen, peptide treatment 24 hours, FIG. 2B), the “expression of ROR-gammaT gene in the spleen” value was “reduced”. In addition, in the experiment with TNF-alpha, the “cytokine TNF-alpha in the lymph node” value is “reduced” and the “cytokine TNF-alpha in the spleen” value is listed as “reduced”. In addition, in the experiment with IL-17, the “cytokine IL-17 in the lymph node” value is reported as “reduced” and the “cytokine IL-17 in the spleen” value is “reduced”. Also, in the experiment on IL-1 beta, the “cytokine IL-1 beta in the lymph node” value was “reduced” and the “cytokine IL-1 beta in the spleen” value is recorded as “reduced”.
For “P4M: P4 peptide (SEQ ID NO: 3) with myristoylation, component of P124-M (HTCRNGENICF; cysteine pairing not given here; also: myristoylation) [Peptide P4M]”, the “cytokine TNF-alpha in the spleen” value in the experiment on TNF-alpha is “reduced”. Moreover, the “cytokine IL-17 in the lymph node” value with IL-17 is “reduced”. Also, in the experiment with IL-1 beta, the “cytokine IL-1 beta in the spleen” value is “reduced”.

These data come from US12698308B2, “Peptide for preventing or treating inflammatory diseases” (AJOU UNIVERSITY INDUSTRY-ACADEMIC COOPERATION FOUNDATION, priority 2021, dated 2026).
